Measured values reported in patent US11015215B2, “Use of high flux SCFA-derivatized monosaccharides in recombinant glycoprotein production” (The Johns Hopkins University, priority 2014, dated 2021).

How the values were obtained:
[1] = system: sialic acid pathway; conditions: cited from earlier work; for efficiency relative to the unmodified sugar: sialic acid production as endpoint
[2] = system: cell surface sialylation; test: Overall sialylation of cell surface glycoconjugates after analog supplementation; assay type: cell-based
[3] = system: individual sites of N-glycosylation; conditions: cited from earlier work
[4] = system: host cells; conditions: cited from earlier work; for side effects (e.g., cytotoxicity): compared to perbutanoylated, 3,4,6-tributanoylated or peracetylated counterparts; for cytotoxicity over prolonged exposure: beyond 2 to 3 days, up to and within two weeks
[5] = system: hexosamine biosynthetic pathway; conditions: cited from earlier work
[6] = system: GalNAc salvage pathway; conditions: cited from earlier work
[7] = system: human protein integrin α4 stably expressed in a CHO line; test: Azido-sugar labeling of integrin α4 in CHO cells (click biotinylation, streptavidin blot); assay type: cell-based; conditions: 100 μM, 24 hours
Procedure: Whole cell lysate from cells treated with 100 μM 1,3,4-O-Bu3ManNAz for 24 hours and “click” chemistry biotinylated were probed with streptavidin (lane 1), and from the same whole cell lysate, integrin α4β1 was immunopurified using human […] antibody and probed with streptavidin (lane 2). Immunopurified integrin α4β1 was again incubated with the human anti-MUC1 antibody and re-purified (lane 3). The band in lane 4 was the same sample as lane 3 but probed with anti-human integrin α4.
FIG. 2 depicts the result of treating the sample of FIG. 1, lane 3, with PNGAse F and sialidase, with samples then visualized using streptavidin HRP.
The use of tri-butanoylated monosaccharides was examined, initially using 1,3,4-O-Bu3ManNAz to label integrin α4 in CHO cells.

[8] = system: host cells; conditions: cited from earlier work

## CCCC(=O)OC1OC(CO)[C@@H](OC(=O)CCC)[C@H](OC(=O)CCC)C1NC(C)=O (stereo partly shown) [1,3,4-O-Bu3ManNAc, tri-butanoylated ManNAc]
[1]
  flux into the sialic acid pathway: high levels of flux
[2]
  increase in overall sialylation (cell surface / glycoconjugates): 50 to 75%
[3]; about ⅓ of sites
  increase in sialylation, about ⅓ of glycosylation sites with dramatic increases: ≥ 8 fold
  increase in sialylation, about ⅓ of glycosylation sites with modest increase: ≤ 2 fold
  level of sialylation, about ⅓ of glycosylation sites that did not respond: remained unchanged
[3]
  increase in degree of sialylation of specific N-glycans: ≥ 8 fold
[4]
  whole molecule toxicity: lack “whole molecule” toxicity
[4]; in most cell lines
  growth inhibition: mild growth inhibition

## CC(=O)NC1C(O)OC(CO)[C@@H](O)[C@@H]1O (stereo partly shown) [ManNAc]
[1]
  concentration supplemented to the cell culture media for a robust increase in sialic acid production: up to 50 mM
[2]
  increase in overall sialylation (cell surface / glycoconjugates): 5 to 10%

## CCCC(=O)OC1OC(CO)[C@@H](OC(=O)CCC)[C@H](OC(=O)CCC)C1NC(C)=O (stereo partly shown) [1,3,4-O-Bu3GlcNAc]
[5]
  flux into the hexosamine biosynthetic pathway: high levels of flux
[4]
  side effects (e.g., cytotoxicity): minimal side effects

## CC(=O)NC1C(OC(C)=O)OC(COC(C)=O)[C@@H](OC(C)=O)[C@@H]1OC(C)=O (stereo partly shown) [Ac4ManNAc, peracetylated ManNAc]
[1]
  efficiency relative to the unmodified sugar: several hundred fold more efficient
[2]
  increase in overall sialylation (cell surface / glycoconjugates): 10 to 25%
[4]
  cytotoxicity over prolonged exposure: cytotoxicity over prolonged exposure to cells

## CCCC(=O)OC1OC(CO)[C@H](OC(=O)CCC)[C@H](OC(=O)CCC)C1NC(C)=O (stereo partly shown) [1,3,4-O-Bu3GalNAc]
[6]
  flux into the GalNAc salvage pathway: high levels of flux
[4]
  side effects (e.g., cytotoxicity): minimal side effects

## CCCC(=O)OC1OC(CO)[C@@H](OC(=O)CCC)[C@H](OC(=O)CCC)C1NC(=O)CN=[N+]=[N-] (stereo partly shown) [1,3,4-O-Bu3ManNAz]
[7]
  labeling of integrin α4: definitive labeling

## CCCC(=O)OCC1OC(OC(=O)CCC)C(NC(C)=O)[C@@H](OC(=O)CCC)[C@@H]1OC(=O)CCC (stereo partly shown) [Bu4ManNAc, perbutanoylated ManNAc, reference compound]
[1]
  efficiency relative to the unmodified sugar: ~2,100 fold
[4]
  cytotoxicity over prolonged exposure: host cells died
[4]; within 2 or 3 days of treatment
  effect on cell growth: slowed cell growth

## CCCC(=O)O.COc1cccc(C#CCON=C2CN3CCC2C3)c1 (stereo not shown) [n-butyrate]
[8]
  concentration required to elicit desired cell responses: ≥ 10 mM
